Laboratory results as given in patent US20130005802A1, “TREATMENT OF WNT/FRIZZLED-RELATED DISEASES” (priority 2009, published 2013).
Like-named read-outs stand apart in the source and are kept apart here.

Tests used:
Dishevelled-2 = test: Immunoblot of endogenous cytosolic Dishevelled-2 in U2OS cells; format: cell-based; conditions: 1-7.5 μM, read-out: half maximal reduction of Dishevelled-2
From the text: After treatment, cytosolic fraction as well as cellular membrane were isolated as described (Mikels, A. J., et al. PLoS Biol 2006, 4, e115, incorporated herein by reference in its entirety). Immunoblots using β-catenin or Dishevelled-2 antibody were used to detect the respective protein levels in cytosol or on membrane, with β-actin immunoblots used for loading controls.
Dishevelled proteins (Dishevelled-1, 2, and 3 in mammalian cells) are intracellular molecules transducing Frizzled signaling.

HCT116 cells [1] = test: MTT assay, HCT116; format: cell-based
Method: (§1) AsPC-1 tumor cells were cultured with T cells at a 1:5 ratio for 7 days in the presence of MEDI-565 or Cont BiTE (100 ng/mL). On day 7, floating cells were discarded and only adherent AsPC-1 cells were harvested with 0.05% trypsin/EDTA and washed with PBS three times. 1×10^4 AsPC-1 tumor cells were added to each well of 96 well flat bottom plates in 200 μL of complete RPMI1640 medium. The cells were allowed to adhere to the plates overnight at 37° C. (day 0) and were further incubated for 1, 2, 4 or 7 days. 20 μL of 10×MTT (3-[4,5-dimethylthiazol-2-yl]-2,5-diphenyl-tetrazolium bromide, 5 mg/mL) solution was added to each well, and incubated at 37° C. for 2 hr. The adherent cells were lysed with 150 μL of dimethyl sulfoxide (DMSO) and the optical density (OD) at 550 nm was measured.
(§2) Colorectal cancer cell lines were incubated in 96-well flat-bottomed plates at 5,000 cells per well in 200 μL of complete RPMI1640 medium. The cells were allowed to adhere to the plates overnight at 37° C. (day 0). […] Then 20 μL of 10×MTT solution was added to each well and incubated at 37° C. for 2 hr. The adherent cells were lysed with 150 μL of DMSO, and then optical density (OD) at 562 nm was measured. DMSO or culture medium was used as a control.
(§3) MTT assay was performed at each time point.

CaCO2 cells = test: MTT assay, CaCO2; format: cell-based; conditions: for IC50: Homo sapiens, Caco-2, 72 h
Method: as §1, §2, §3
An MTT assay was performed after 72 hr incubation. After cell lysis with DMSO, the optical density (OD) at 562 nm was measured.

HCT116 cells [2] = test: Flow-based cytotoxicity assay (annexin V), HCT116; format: cell-based; conditions: 3 days, 0.2-20 μM
Method: (§4) After 3 days incubation, all cells were harvested with 0.05% trypsin/EDTA and spun down by centrifugation. Cells were labeled with biotin-conjugated Annexin V, and then stained with 7-AAD and Streptavidin-APC. Samples were acquired by FACSCalibur machine (BD Bioscience) and analyzed with CellQuest software. Cells were analyzed for expression of Annexin V as a marker of apoptosis.
(§5) Annexin V may be used as a marker for apoptosis and other forms of cell death. […] After 3 days of incubation, all cells were harvested with 0.05% trypsin/EDTA, labeled with biotin-conjugated Annexin V, and then stained with 7-AAD and streptavidin-APC. Samples were acquired by FACSCalibur, and percentages of annexin V-positive cells were analyzed and plotted as shown in FIG. 11. Cells were analyzed for expression of Annexin V as a marker of apoptosis.

fibroblasts = test: Flow-based cytotoxicity assay (annexin V), fibroblasts; format: cell-based; conditions: 3 days, 0.2-20 μM
Method: as §4, §5

[3] = test system: peripheral blood mononuclear cells (PBMCs); format: cell-based; conditions: human, 3 days
Method: as §4, §5

Dvl-2 [4] = test: Western blot of cytosolic Dvl-2 in colorectal cancer cells; format: cell-based
Method: (§6) CRC explants and colorectal cancer cell lines were cultured in 6-well plates. […] After washing cells with PBS three times, hypotonic lysis buffer consist of 10 mM Tris-HCl, pH7.4 and 0.2 mM MgCl2, supplemented with 1× Halt Protease and Phosphatase Inhibitor Cocktail (Thermo Scientific Pierce Protein Research Products, Rockford, Ill.) were applied to make cell lyates for Western Blot.
(§7) After washing cells with PBS, cell lysates were made with hypotonic lysis buffer.

β-catenin = test: Western blot of cytosolic β-catenin in colorectal cancer cells; format: cell-based
Method: as §6, §7

[5] = Side effects during in vivo treatment; parameters: species or system NOD/SCID mice; conditions: up to 200 mg/kg gavage, 2-3 weeks
Method: HCT116 colon cancer cells were harvested from flasks with 0.05% Trypsin/EDTA and resuspended with Hanks buffered solution at 5×10^6 cells/100 μL concentration. CRC explants (CRC039) cultured in vitro were harvested with the same procedure and mixed with equal volume of Matrigel to make 1×10^6 cells/100 μL concentration. The cell suspension (100 μL) was inoculated into the flank of NOD/SCID mice 4 days before the start of treatment. […] Initially, 2 weeks of treatment was planned for both HCT116 and CRC039. However, treatment was extended to 3 weeks for CRC039 cells because the […] grew much slower than the HCT116 cell line. Tumor size was measured 3 times a week until mice were euthanized.

Dvl-2 [6] = test: Immunohistochemistry of Dvl-2 in treated tumors; format: in vivo, NOD/SCID mice; conditions: 200 mg/kg, 2 or 3 weeks
Method: Paraffin-embedded specimens were cut into 4 μm-thick of sequential sections. After dewaxing in xylene and rehydrating stepwise in ethanol, sections were subjected to heat-induced antigen retrieval. Endogenous peroxidase activity was blocked with 3% H2O2, and non-specific binding was blocked with non-immune horse sera. Sections were then incubated with primary antibodies overnight at 4C. Anti-β-catenin (sc-65483, Santa Cruz Biotechnology, Inc., Santa Cruz, Calif.) and anti-Dvl-2 (sc-8026, Santa Cruz Biotechnology, Inc., Santa Cruz, Calif.) monoclonal antibodies were used at (1:50) dilution. After rinsing the sections were incubated with the biotinylated secondary antibody (1:200 dilution; Dakopatts, Copenhagen, Denmark) for 30 min at room temperature and then with the avidin-biotin peroxidase complex from the Vector Elite ABC kit (Vector Laboratories, Burlingame, Calif.) according to the manufacturer's instructions. Visualization was achieved using 3,3′-diaminobenzidine tetrahydrochloride and H2O2. Specimens were counterstained with hematoxylin.
NOD/SCID mice were implanted with colorectal cancer explants or cell lines. […] Tumors were excised and fixed with 10% neutralized, buffered formalin. Paraffin-embedded specimens were cut into 4 μm-thick of sequential sections. After dewaxing and rehydration, heat-induced antigen retrieval was performed. […]

[7] = CRC057 and HCT116, 1, 5, 10 μM, 18 hr

## O=C(Nc1ccc([N+](=O)[O-])cc1Cl)c1cc(Cl)ccc1O [niclosamide]
Dishevelled-2
  IC50: ~1 µM
HCT116 cells [1]; 2 μM, 72 hr
  cytotoxic effect compared with 10 μM oxaliplatin: stronger cytotoxic effect
HCT116 cells [1]; 0.4, 2, 10 μM, 72 hr
  proliferation (MTT, OD 562 nm), sensitivity among three cell lines: most sensitive
HCT116 cells [1]; 0.4, 2, 10 μM, 24-96 hr
  % proliferation over time: sensitive
HCT116 cells [1]; 24-96 hr
  concentration at which cells were killed over time: 0.4 µM
CaCO2 cells; 2 μM, 72 hr
  cytotoxic effect compared with 10 μM oxaliplatin: stronger cytotoxic effect
CaCO2 cells; 0.4, 2, 10 μM, 72 hr
  proliferation (MTT, OD 562 nm): less proliferation
CaCO2 cells; 0.4, 2, 10 μM, 24-96 hr
  % proliferation over time: sensitive
CaCO2 cells; read-out: IC50 of niclosamide (MTT)
  IC50: 1 µM
CaCO2 cells; read-out: IC50 of niclosamide (MTT) with oxaliplatin
  IC50: 0.5 µM
HCT116 cells [2]
  concentration with steep increase of annexin V-positive cells: 0.2 µM
fibroblasts
  apoptotic cell death (annexin V): did not show a significant increase
[3]
  doses at which apoptosis was shown (annexin V): 10 to 20 µM
Dvl-2 [4]; [7]
  cytosolic Dvl-2 expression: downregulated
Dvl-2 [4]; HT29 cells
  cytosolic Dvl-2 expression: milder change
β-catenin; [7]
  cytosolic β-catenin expression: downregulated
β-catenin; HT29 cells
  cytosolic β-catenin expression: milder change
[5]
  side effects during treatment: no obvious side effect
Dvl-2 [6]
  cytoplasmic expression of Dvl-2 in tumors vs control: decreased levels
